# Assay results taken from patent publication US8466145B2, “Dipeptidyl peptidase IV inhibitors” (Orchid Chemicals & Pharmaceuticals Limited, priority 2009, dated 2013).
# How the values were obtained:
# DPP-IV = molecular target: T1, DPP-IV (Homo sapiens, UniProt P27487); test: DPP-IV inhibition, compounds screened by using human plasma; assay type: biochemical; conditions: screened by using human plasma (starred examples); for inhibition at 0.3 µM: 300 nM compound concentration
# T1 construct: from tissue; host or cells: human plasma (per the earlier reading of the assay)
# T1 sequence (P27487 39-766 limits assumed): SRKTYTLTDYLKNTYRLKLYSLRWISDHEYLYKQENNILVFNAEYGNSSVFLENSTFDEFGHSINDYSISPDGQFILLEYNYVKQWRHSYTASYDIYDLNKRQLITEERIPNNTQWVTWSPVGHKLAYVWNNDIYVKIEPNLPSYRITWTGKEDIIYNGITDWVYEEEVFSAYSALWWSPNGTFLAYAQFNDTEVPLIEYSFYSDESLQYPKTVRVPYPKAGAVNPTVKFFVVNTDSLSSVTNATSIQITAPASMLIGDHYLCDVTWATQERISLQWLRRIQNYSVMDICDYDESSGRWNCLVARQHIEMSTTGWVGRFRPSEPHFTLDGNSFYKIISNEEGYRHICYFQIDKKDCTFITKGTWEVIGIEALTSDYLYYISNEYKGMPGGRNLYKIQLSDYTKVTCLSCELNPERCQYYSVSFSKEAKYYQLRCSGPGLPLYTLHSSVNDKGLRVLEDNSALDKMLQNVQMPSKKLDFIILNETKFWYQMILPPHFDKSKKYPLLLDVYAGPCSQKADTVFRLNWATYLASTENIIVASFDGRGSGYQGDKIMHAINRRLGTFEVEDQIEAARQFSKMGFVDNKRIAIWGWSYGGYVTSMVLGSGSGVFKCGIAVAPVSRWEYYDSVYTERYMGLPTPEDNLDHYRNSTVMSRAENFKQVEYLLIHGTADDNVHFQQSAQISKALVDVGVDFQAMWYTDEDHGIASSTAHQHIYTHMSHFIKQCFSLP
# [1] = molecular target: T2, human recombinant Dipeptidyl peptidase 8 enzyme (hrDPP 8) (Homo sapiens, UniProt Q6V1X1); test: DPP 8 assay, cleavage of H-Ala-Pro-AFC; assay type: biochemical; conditions: for Selectivity (Fold) DPP 8: selectivity for DPP-IV over DPP 8
# T2 construct: purchased R&D systems
# T2 sequence (Q6V1X1 whole entry): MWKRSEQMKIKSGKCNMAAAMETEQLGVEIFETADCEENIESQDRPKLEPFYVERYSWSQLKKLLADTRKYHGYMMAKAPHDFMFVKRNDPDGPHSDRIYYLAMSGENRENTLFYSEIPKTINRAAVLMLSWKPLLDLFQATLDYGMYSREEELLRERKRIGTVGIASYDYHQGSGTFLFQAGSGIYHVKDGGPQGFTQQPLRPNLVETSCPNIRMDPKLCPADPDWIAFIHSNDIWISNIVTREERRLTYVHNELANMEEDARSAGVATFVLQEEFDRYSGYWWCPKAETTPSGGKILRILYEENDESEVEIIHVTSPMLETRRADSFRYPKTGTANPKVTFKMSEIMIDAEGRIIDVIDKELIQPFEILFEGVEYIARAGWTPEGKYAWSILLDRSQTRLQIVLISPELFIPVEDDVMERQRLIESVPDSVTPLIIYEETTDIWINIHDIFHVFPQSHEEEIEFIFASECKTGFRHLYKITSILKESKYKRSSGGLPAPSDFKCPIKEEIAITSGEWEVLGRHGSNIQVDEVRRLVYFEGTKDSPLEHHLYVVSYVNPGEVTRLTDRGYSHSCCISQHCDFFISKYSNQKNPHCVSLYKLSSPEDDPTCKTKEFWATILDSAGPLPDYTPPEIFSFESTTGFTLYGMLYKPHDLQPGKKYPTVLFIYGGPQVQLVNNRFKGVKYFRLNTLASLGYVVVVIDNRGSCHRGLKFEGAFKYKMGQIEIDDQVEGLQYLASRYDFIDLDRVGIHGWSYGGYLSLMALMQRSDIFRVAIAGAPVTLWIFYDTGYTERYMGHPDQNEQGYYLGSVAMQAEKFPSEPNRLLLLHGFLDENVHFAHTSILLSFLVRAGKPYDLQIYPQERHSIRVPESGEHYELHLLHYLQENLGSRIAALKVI
# Procedure: DPP 8 activity was determined by the cleavage rate of 7-amino 4-fluoromethylcoumarin (AFC) from the substrate H-Ala-Pro-AFC. In brief, the assay was conducted by adding 30 ng of human recombinant Dipeptidyl peptidase 8 enzyme (hrDPP 8, available commercially from R&D systems) in 70 μL of the assay buffer (50 mM TRIS and 5 mM EDTA, pH 7.7) to a 96 well black flat bottom microtitre plate. Test compound was added as 10 μL additions to all wells except blank and total activity wells. After incubation of test substance with enzyme for 30 minutes at room temperature, 10 μL of 100 μM substrate H-Ala-Pro-AFC was added. After mixing, the plate was left for 30 minutes at room temperature. Then the reaction was terminated by addition of 10 μL of 25% Glacial Acetic Acid. Fluorescence was measured using Spectra Max Gemini XS (Molecular Devices, USA) at an excitation filter of 400 nm and emission filter of 505 nm.
# Test compound dissolved in DMSO were diluted with assay buffer at different concentrations and tested in duplicates. Percentage inhibition was calculated with respect to total activity. IC50 value was calculated using Prism Software.
# C57BL/6 mice = test: Oral glucose tolerance test; assay type: in vivo; conditions: compound 10 mg/kg; for Antihyperglycemic activity, reduction in AUC (blood glucose), Time 0.50 hr: glucose 2 g/kg challenge 0.50 hr after compound administration; for Antihyperglycemic activity, reduction in AUC (blood glucose), Time 6.00 hr: glucose 2 g/kg challenge 6.00 hr after compound administration, NA = No activity
# Procedure: Effect of compound on glucose tolerance was examined in 7 week old C57BL/6 mice. Animals were kept for 18 h fasting and were challenged with glucose (2 g/kg) 30 min after compound (10 mg/kg) administration. Blood samples for glucose measurement were obtained by tail bleed pre dose and at serial time points after the glucose load (30, 60 and 120 minutes). Blood glucose estimation was done by using ContourTS active strips on glucometer (Bayer). To find the time response on glucose excursion, animals were challenged with glucose at different time point after compound administration (0.5, 2, 4, 6, 8, 12 or 24 hours) at blood glucose was measured at pre (0 minute) and post (30, 60 and 120 minutes) glucose load.
# Results of blood glucose were expressed as area under curve (AUC) was calculated using Prism software.
# [2] = molecular target: T3, human recombinant Dipeptidyl peptidase 9 enzyme (hrDPP 9) (Homo sapiens, UniProt Q86TI2); test: DPP 9 assay, cleavage of H-Gly-Pro-AMC; assay type: biochemical; conditions: for Selectivity (Fold) DPP 9: selectivity for DPP-IV over DPP 9
# T3 construct: purchased R&D systems
# T3 sequence (Q86TI2 whole entry): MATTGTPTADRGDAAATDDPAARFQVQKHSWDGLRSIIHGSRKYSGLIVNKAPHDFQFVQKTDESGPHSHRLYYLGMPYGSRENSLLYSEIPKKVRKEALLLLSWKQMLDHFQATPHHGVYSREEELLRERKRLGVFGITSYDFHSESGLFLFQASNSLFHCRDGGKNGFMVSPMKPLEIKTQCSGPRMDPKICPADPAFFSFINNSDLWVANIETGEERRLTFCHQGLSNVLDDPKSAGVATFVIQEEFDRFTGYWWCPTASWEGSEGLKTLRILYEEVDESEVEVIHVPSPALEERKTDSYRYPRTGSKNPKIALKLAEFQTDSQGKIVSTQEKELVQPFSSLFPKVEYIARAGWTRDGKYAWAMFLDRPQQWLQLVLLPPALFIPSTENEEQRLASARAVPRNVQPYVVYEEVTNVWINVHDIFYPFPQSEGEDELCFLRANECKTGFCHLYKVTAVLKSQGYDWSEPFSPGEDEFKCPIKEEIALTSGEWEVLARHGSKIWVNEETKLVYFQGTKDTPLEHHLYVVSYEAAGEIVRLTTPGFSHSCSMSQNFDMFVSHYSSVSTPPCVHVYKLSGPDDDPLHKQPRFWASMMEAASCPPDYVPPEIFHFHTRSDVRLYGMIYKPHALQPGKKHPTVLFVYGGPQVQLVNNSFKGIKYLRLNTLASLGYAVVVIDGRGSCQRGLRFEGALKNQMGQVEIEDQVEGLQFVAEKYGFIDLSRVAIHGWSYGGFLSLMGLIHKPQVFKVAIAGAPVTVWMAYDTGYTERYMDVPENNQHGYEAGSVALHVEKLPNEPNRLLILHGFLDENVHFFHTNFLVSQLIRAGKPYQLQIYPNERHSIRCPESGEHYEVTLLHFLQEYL
# Procedure: DPP 9 activity was determined by the cleavage rate of 7-amino 4-methylcoumarin (AMC) from the substrate H-Gly-Pro-AMC. In brief, the assay was conducted by adding 10 ng of human recombinant Dipeptidyl peptidase 9 enzyme (hrDPP 9, available commercially from R&D systems) in 70 μL of the assay buffer (50 mM TRIS and 5 mM EDTA, pH 7.7) to a 96 well black flat bottom microtitre plate. Test compound was added as 10 μL additions to all wells except blank and total activity wells. After incubation of test substance with enzyme for 30 minutes at room temperature, 10 μL of 100 μM substrate H-Gly-Pro-AMC was added. After mixing, the plate was left for 30 minutes at room temperature. Then the reaction was terminated by addition of 10 μL of 25% Glacial Acetic Acid. Fluorescence was measured using Spectra Max Gemini XS (Molecular Devices, USA) at an excitation filter of 360 nm and emission filter of 460 nm.
# Test compound dissolved in DMSO were diluted with assay buffer at different concentrations and tested in duplicates. Percentage inhibition was calculated with respect to total activity. IC50 value was calculated by using Prism Software.
# [3] = molecular target: T4, human recombinant Dipeptidyl peptidase IV enzyme (hrDPP IV) (Homo sapiens, UniProt P27487); test: DPP IV assay, cleavage of H-Gly-Pro-AMC by human recombinant DPP-IV enzyme; assay type: biochemical
# T4 construct: purchased R&D systems
# T4 sequence (P27487 whole entry): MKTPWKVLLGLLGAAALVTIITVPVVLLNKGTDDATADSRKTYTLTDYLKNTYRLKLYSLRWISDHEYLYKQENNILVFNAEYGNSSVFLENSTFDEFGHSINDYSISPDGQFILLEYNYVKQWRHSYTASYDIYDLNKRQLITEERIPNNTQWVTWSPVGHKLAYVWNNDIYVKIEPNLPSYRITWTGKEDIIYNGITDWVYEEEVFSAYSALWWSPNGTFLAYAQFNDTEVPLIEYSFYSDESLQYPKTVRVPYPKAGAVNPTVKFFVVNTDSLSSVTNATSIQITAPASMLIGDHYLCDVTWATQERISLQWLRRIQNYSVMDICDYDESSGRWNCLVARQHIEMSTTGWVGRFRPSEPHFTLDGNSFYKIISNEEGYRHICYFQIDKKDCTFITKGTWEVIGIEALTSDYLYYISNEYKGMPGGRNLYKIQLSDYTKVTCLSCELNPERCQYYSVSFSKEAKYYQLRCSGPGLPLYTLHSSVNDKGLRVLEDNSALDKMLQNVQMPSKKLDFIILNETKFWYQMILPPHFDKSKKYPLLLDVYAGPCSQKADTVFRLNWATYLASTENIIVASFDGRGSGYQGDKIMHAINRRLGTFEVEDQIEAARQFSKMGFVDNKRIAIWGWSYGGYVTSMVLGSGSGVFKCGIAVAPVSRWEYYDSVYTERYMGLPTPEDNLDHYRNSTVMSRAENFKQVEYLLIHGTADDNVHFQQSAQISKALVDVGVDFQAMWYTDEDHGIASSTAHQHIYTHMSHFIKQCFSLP
# Outline: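 Human recombinant DPP-IV (3 ng) preincubated 60 min at room temperature with compound in 25 mM HEPES, 140 mM NaCl, 1% BSA, pH 7.8, in duplicate. Reaction with H-Gly-Pro-AMC (10 μL of 100 μM) for 20 min, stopped with acetic acid; AMC fluorescence 360/460 nm, IC50 from percent inhibition.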
SMILES,melting point,Selectivity (Fold) DPP 8 [1],"Antihyperglycemic activity, reduction in AUC (blood glucose), Time 0.50 hr (C57BL/6 mice)",Selectivity (Fold) DPP 9 [2],IC50 [3],other results
"CC1(C)[C@@H](NCC(=O)N2C[C@@H](F)C[C@H]2C#N)CC[C@@]1(C)c1nc(-c2ccc(F)cc2)no1 [Example 65, (2S,4S)-4-Fluoro-1-(2-((1S,3R)-3-(3-(4-fluorophenyl)-1,2,4-oxadiazol-5-yl)-2,2,3-trimethylcyclopentylamino)acetyl)pyrrolidine-2-carbonitrile]",–,–,–,–,–,IC50 (DPP-IV): 238 nM
"CC1(C)[C@H](Cn2cncn2)CC[C@]1(C)NCC(=O)N1C[C@@H](F)C[C@H]1C#N [Example 3, (2S,4S)-1-(2-((1S,3R)-3-((1H-1,2,4-Triazol-1-yl)methyl)-1,2,2-trimethylcyclopentylamino)acetyl)-4-fluoropyrrolidine-2-carbonitrile]",132 to 135 °C,>27000 Fold,53.89%,>5000 Fold,11 ± 0.16 nM,–
"CC1(C)[C@H](c2nc(-c3ccc(F)cc3)no2)CC[C@]1(C)NCC(=O)N1C[C@@H](F)C[C@H]1C#N [Example 49, (2S,4S)-4-Fluoro-1-(2-((1S,3R)-3-(3-(4-fluorophenyl)-1,2,4-oxadiazol-5-yl)-1,2,2-trimethylcyclopentylamino)acetyl)pyrrolidine-2-carbonitrile]",160 to 163 °C,–,–,–,–,IC50 (DPP-IV): 422 nM
"CC1(C)[C@H](Cc2noc(CO)n2)CC[C@]1(C)NCC(=O)N1C[C@@H](F)C[C@H]1C#N [Example 60, (2S,4S)-4-Fluoro-1-(2-((1S,3S)-3-((5-(hydroxymethyl)-1,2,4-oxadiazol-3-yl)methyl)-1,2,2-trimethylcyclopentylamino)acetyl)pyrrolidine-2-carbonitrile]",147 to 149 °C,>19000 Fold,47.70%,>7000 Fold,6.59 nM,"Antihyperglycemic activity, reduction in AUC (blood glucose), Time 6.00 hr (C57BL/6 mice): 51.55%; Antihyperglycemic activity, reduction in AUC (blood glucose), Time 12.00 hr (C57BL/6 mice; glucose 2 g/kg challenge 12.00 hr after compound administration): 29.62%; inhibition at 0.3 µM ([3]; 300 nM compound concentration): 94.7%"
"CC1(C)[C@H](CN2CCCS2(=O)=O)CC[C@]1(C)NCC(=O)N1C[C@@H](F)C[C@H]1C#N [Example 29, (2S,4S)-1-(2-((1S,3R)-3-[(1,1-Dioxidoisothiazolidin-2-yl)methyl]-1,2,2-trimethyleyclopentylamino)acetyl)-4-fluoropyrrolidine-2-carbonitrile]",171 to 174 °C,>13000 Fold,42.52%,>1100 Fold,7.61 nM,"Antihyperglycemic activity, reduction in AUC (blood glucose), Time 6.00 hr (C57BL/6 mice): 20.21%"
"CC1(C)[C@H](CN2CCOCC2)CC[C@]1(C)NCC(=O)N1C[C@@H](F)C[C@H]1C#N [Example 34, (2S,4S)-4-Fluoro-1-(2-((1S,3R)-1,2,2-trimethyl-3-(morpholinomethyl)cyclopentylamino)acetyl)pyrrolidine-2-carbonitrile]",163 to 166 °C,>10000 Fold,54.32%,>1500 Fold,8.94 nM,–
"CC1(NCC(=O)N2C[C@@H](F)C[C@H]2C#N)CCC(CS(=O)(=O)c2ccc(S(C)(=O)=O)cc2)C1(C)C (stereo in doubt) [Example 45, (2S,4S)-4-Fluoro-1-(2-((1S,3R)-1,2,2-trimethyl-3-((4-(methylsulfonyl)phenylsulfonyl)methyl)cyclopentylamino)acetyl)pyrrolidine-2-carbonitrile]",211 to 216 °C,–,–,–,59 nM,"IC50 ([1]; human recombinant DPP 8, read-out: DPP 8 (cell printed in μM in the Selectivity column)): > 300 µM; IC50 ([2]; human recombinant DPP 9, read-out: DPP 9 (cell printed in μM in the Selectivity column)): > 300 µM"
"CC1(C)[C@@H](Cn2cncn2)CC[C@@]1(C)NCC(=O)N1C[C@H](F)C[C@H]1C#N [Example 2, (2S,4R)-1-(2-((1R,3S)-3-((1H-1,2,4-Triazol-1-yl)methyl)-1,2,2-trimethylcyclopentylamino)acetyl)-4-fluoropyrrolidine-2-carbonitrilemethane sulfonate]",–,–,–,–,–,inhibition at 0.3 µM (DPP-IV): 10.5%
"CC1(C)[C@@H](NCC(=O)N2CCC[C@H]2C#N)CC[C@@]1(C)c1nc(-c2ccc(F)cc2)no1 [Example 66, (S)-1-(2-((1S,3R)-3-(3-(4-Fluorophenyl)-1,2,4-oxadiazol-5-yl)-2,2,3-trimethylcyclopentylamino)acetyl)pyrrolidine-2-carbonitrile methanesulfonate]",–,–,–,–,–,inhibition at 0.3 µM (DPP-IV): 23.2%
"CC1(C)[C@H](Cn2cncn2)CC[C@]1(C)NCC(=O)N1C[C@H](F)C[C@H]1C#N [Example 5, (2S,4R)-1-(2-((1S,3R)-3-((1H-1,2,4-Triazol-1-yl)methyl)-1,2,2-trimethylcyclopentylamino)acetyl)-4-fluoropyrrolidine-2-carbonitrilemethanesulfonate]",–,–,–,–,–,inhibition at 0.3 µM (DPP-IV): 4.1%
"Cc1noc([C@@]2(C)CC[C@@H](NCC(=O)N3C[C@@H](F)C[C@H]3C#N)C2(C)C)n1 [Example 73, (2S,4S)-4-Fluoro-1-(2-((1R,3S)-2,2,3-trimethyl-3-(3-methyl-1,2,4-oxadiazol-5-yl)cyclopentylamino)acetyl)pyrrolidine-2-carbonitrile]",144 to 147 °C,>2300 Fold,–,>150 Fold,41 nM,–
"CC1(C)[C@H](Cn2cnnn2)CC[C@]1(C)NCC(=O)N1C[C@@H](F)C[C@H]1C#N [Example 32, (2S,4S)-1-(2-((1S,3R)-3-((1H-Tetrazol-1-yl)methyl)-1,2,2-trimethylcyclopentylamino)acetyl)-4-fluoropyrrolidine-2-carbonitrile]",151 to 154 °C,>9500 Fold,17.80%,>1900 Fold,6.01 nM,–
"CC1(C)[C@@H](NCC(=O)N2C[C@@H](F)C[C@H]2C#N)CC[C@@]1(C)c1nc(-c2cccnc2)no1 [Example 68, (2S,4S)-4-Fluoro-1-(2-((1S,3R)-2,2,3-trimethyl-3-(3-(pyridin-3-yl)-1,2,4-oxadiazol-5-yl)cyclopentylamino)acetyl)pyrrolidine-2-carbonitrile]",126 to 130 °C,>250 Fold,–,>15 Fold,40.2 nM,–
"Cc1noc([C@]2(C)CC[C@H](NCC(=O)N3C[C@@H](F)C[C@H]3C#N)C2(C)C)n1 [Example 74, (2S,4S)-4-Fluoro-1-(2-((1S,3R)-2,2,3-trimethyl-3-(3-methyl-1,2,4-oxadiazol-5-yl)cyclopentylamino)acetyl)pyrrolidine-2-carbonitrile]",137 to 141 °C,>900 Fold,–,>25 Fold,54.7 nM,–
"CC1(C)[C@@H](c2nc(-c3ccc(F)cc3)no2)CC[C@@]1(C)NCC(=O)N1C[C@@H](F)C[C@H]1C#N [Example 48, (2S,4S)-4-Fluoro-1-(2-((1R,3S)-3-(3-(4-fluorophenyl)-1,2,4-oxadiazol-5-yl)-1,2,2-trimethyleyclopentylamino)acetyl)pyrrolidine-2-carbonitrile]",–,–,–,–,–,inhibition at 0.3 µM (DPP-IV): 4.46%
